# Source: US12377092B2, “Polycomb inhibitors and uses thereof” (FONDAZIONE ISTITUTO FIRC DI ONCOLOGIA MOLECOLARE (IFOM), priority 2017, dated 2025)
# Entries after “also recorded” stand apart in the source; their conditions may differ.
# Columns and labels:
# [1] = tested on: EndMT markers (Klf4, Sca1 and Fsp1); assay: Real time (RT-PCR) analysis of EndMT markers, wild type and CCM3 knock out immortalized lung endothelial cells; assay type: cell-based, mouse; settings: 72 hours
# Protocol: (§1) Cells were seeded 6.3×10^4 cells/cm^2. The day after, PTC209 and UNC1999 were added to the confluent cells. Drugs were left for one or three days depending on the aim of the experiment. Final concentrations used for the two drugs were: 1 uM PTC209 and 5 uM UNC1999.
# RNA extraction was performed both with (A) RNeasy kits (Promega) or (B) RNAeasy Mini Kit (QIAGEN). The latter allows also the extraction of proteins from the same sample. The RNA (500 ng) was reverse transcribed with random hexamers (High Capacity cDNA Archive kits; Applied Biosystems) in a final volume of 30 uL. Reaction were made with a thermocycler (Eppendorf) 10 min at 25° C. followed by 2 hours at 37° C. cDNA (5 ng) was amplified in triplicate in a reaction volume of 15 uL using TaqMan Gene Expression Assays (Applied Biosystems) in a ABI/Prism 7900 HT using a pre PCR step of 10 min at 95° C., followed by 40 cycles of 15 seconds at 95° C. and 60 seconds at 60° C. For each sample, the expression level was determined with the comparative threshold cycle (Ct) method, and normalized to the housekeeping genes encoding 18S, glyceraldehyde-3-phosphate dehydrogenase (GAPDH) and hypoxanthine-guanine phosphoribosyltransferase (hprt1). Ct or threshold cycle, represents the PCR cycle at which an increase in reporter fluorescence above a base-line signal can first be detect.
# (§2) Wild type and CCM3 knock out cells were treated with either PTC209 or DMSO starting from the day after seeding, when cells were confluent. For this experiment cells were lysed for western blot and real-time analysis after 72 hours of treatment to check a long-term effect of PTC209.
# (§3) To perform these experiments, immortalized lung endothelial cells both wild type and CCM3 knock out were treated, with the same experimental strategy used for PTC209, with UNC1999 for 72 hours and subsequently lysed for western blot and real time analysis. UNC1999 was used in its specific optimal concentration, which was different to PTC209. As control DMSO was given to the cells in a volume equal to the volume of DMSO in which UNC1999 was previously dissolved to rich the optimal concentration.
# (§4) Briefly, wild type and CCM3 knock out cells were treated with either PTC209, UNC1999 or a combination of the two. PTC209 and UNC1999 were administrated at the same concentration used for the single treatment and DMSO was given as control in a volume equal to the sum of volumes of DMSO in which UNC1999 and PTC209 were previously dissolved.
# [2] = tested on: EndMT markers (Klf4, Sca1 and Fsp1); assay: Western blot analysis of EndMT markers, wild type and CCM3 knock out immortalized lung endothelial cells; assay type: cell-based, mouse; settings: 72 hours
# Protocol: as §1
# (§5) Confluent cells were lysed with boiling modified Laemi sample Buffer (2% SDS, 20% glycerol, and 125 mM Tris-HCl, pH 6.8). Lysates were incubated for 10 minutes at 100° C. to allow proteins denaturation. Protein concentration was estimated using the BCA Protein Assay Kit (Pierce). Equal amount of proteins was loaded on a gel, separated by SDS-PAGE and transferred to a Protran Nitrocellulose Membrane (Whatman) 0.2 um pores. The membranes were blocked for 1 hour at RT in Tris Buffered Saline (TBS: NaCl 150 mM, Tris-HCl 10 mM pH 7.4) plus 0.1% Tween-20 containing 5% BSA or milk. The membranes were incubated with primary antibodies diluted in TBST (TBS plus 0.1% Tween-20) containing 5% of either BSA or milk overnight at 4° C. Next, membranes were rinsed three times with TBST for 5 minutes each and incubated for 45 minutes at RT with HRP-linked secondary antibodies diluted in TBST containing 5% BSA/milk. Membranes were rinsed three times with TBST for 5 minutes each and specific bindings were detected by enhanced chemiluminescence (ECL) system (Amersham Bioscience) using ChemiDoc XRS gel imaging system (Bio-Rad).
# as §2, §3, §4
# PRC2 = settings: Konze et al., 2013; cited from earlier work
# VE-cadherin = assay: Western blot analysis of VE-cadherin, CCM3 knock out cells; assay type: cell-based, mouse; settings: 72 hours
# Protocol: as §1
# as §5, with “The membranes were incubated with primary antibodies diluted in TBST (TBS plus 0.1% Tween-20) containing 5% of either BSA or milk overnight at 4° C. Next, membranes were rinsed three times with TBST for 5 minutes each and incubated for 45 minutes at RT with HRP-linked secondary antibodies diluted in TBST containing 5% BSA/milk.” left out
# Experiment with combined PTC209 and UNC1999 treatments was repeated with the same experimental conditions described before and junction organisation was analysed through VE-cadherin staining and protein expression analysis (FIG. 19).
# [3] = CCM3 knock out cells, 1 uM PTC209, 5 uM UNC1999, vs DMSO
# [4] = wild type cells (physiological condition), CCM3 model
structure (smiles),measurement,setting,value
"CCCc1cc(C)[nH]c(=O)c1CNC(=O)c1cc(-c2ccc(N3CCN(C(C)C)CC3)nc2)cc2c1cnn2C(C)C [UNC1999, N-[(6-methyl-2-oxo-4-propyl-1H-pyridin-3-yl)methyl]-1-propan-2-yl-6-[6-(4-propan-2-ylpiperazin-1-yl)pyridin-3-yl]indazole-4-carboxamide]","Klf4, Sca1 and Fsp1 transcripts (real time analysis)",[1]; [3],downregulation
same,Klf4 transcript (real time analysis),[1]; [4],not influenced
same,"EndMT markers (Klf4, Sca1, Fsp1) protein expression (western blot)",[2]; [3],downregulation; also recorded: inhibition of the upregulation
same,downregulation of EndMT protein and gene expressions compared with PTC209,"[2]; CCM3 knock out cells, 5 uM UNC1999, western blot and real time",not as strong as the downregulation observed upon administration of PTC209
same,Klf4 protein (western blot),[2]; [4],not influenced
same,Hystone-methyl transferase activity of PRC2,PRC2,blocked
same,VE-cadherin protein expression level (western blot),VE-cadherin,did not show any rescue
